This is an account of results in ChEMBL document CHEMBL3044741, “Synthesis of novel biologically active methylene derivatives of sydnones” (Med Chem Res, 2013).

In series [1] the test system is Aspergillus clavatus. The series can be described thus: Antifungal activity against Aspergillus clavatus MTCC 1323 at 250 ug/ml after 74 hrs by Kirby-Bauer method. The settings on record: for zone of inhibition at 250 µg/mL: MTCC 1323, 74 h, read-out: IZ. The format is functional.
For series [2], the system named is Candida albicans. The series can be described thus: Antifungal activity against Candida albicans MTCC 227. The format is functional.
Series [3] concerns Aspergillus clavatus. Description: Antifungal activity against Aspergillus clavatus MTCC 1323. The format is functional.
Series [4] concerns Aspergillus niger. Description: Antifungal activity against Aspergillus niger MTCC 282. The format is functional.
Series [5] has as its system Candida albicans. Description: Antifungal activity against Candida albicans MTCC 227 at 250 ug/ml after 74 hrs by Kirby-Bauer method. The format is functional. The settings on record: MTCC 227, 74 h, read-out: IZ.
Series [6] can be described thus: Cytotoxicity against human HEL cells assessed as alteration in cell morphology. The format is cell-based.
For series [7], the system named is Pseudomonas aeruginosa. Description: Antibacterial activity against Pseudomonas aeruginosa MTCC 424 at 250 ug/ml after 24 hrs by Kirby-Bauer method. The format is functional. The settings on record: MTCC 424, 24 h, read-out: IZ.
Series [8] relates to Cytomegalovirus. The series can be described thus: Antiviral activity against Cytomegalovirus AD-169 infected in HEL cells assessed as reduction in plaque formation. The format is functional, organism-based. The settings on record: Human betaherpesvirus 5, AD-169, HEL.
Series [9] has as its system Pseudomonas aeruginosa. Description: Antibacterial activity against Pseudomonas aeruginosa MTCC 424 after 24 hrs by broth dilution method. The settings on record: MTCC 424, 24 h. The format is functional. For orientation: Dilution methods test growth across graded concentrations, often in twofold steps.
Series [10] has as its system Human immunodeficiency virus 2. Description: Antiviral activity against HIV2 ROD infected in MT4 cells assessed as inhibition of virus-induced cytopathogenicity by MTT assay. The format is functional, organism-based. The settings on record: Human immunodeficiency virus 2, ISOLATE ROD. Background: Cytopathic effects are the visible damage that an infection or toxin causes in cultured cells.

The nature of series [11]: Cytotoxicity against human HEL cells. The format is cell-based.
Series [12] concerns Staphylococcus aureus. The series can be described thus: Antibacterial activity against Staphylococcus aureus MTCC 96 at 250 ug/ml after 24 hrs by Kirby-Bauer method. The settings on record: MTCC 96, 24 h, read-out: IZ. The format is functional.
The test system of series [13] is Streptococcus pyogenes. The series can be described thus: Antibacterial activity against Streptococcus pyogenes MTCC 442 after 24 hrs by broth dilution method. The format is functional. The settings on record: MTCC 442, 24 h.
Series [14] in a line: Cytotoxicity against human MT4 cells by MTT assay. The format is cell-based. (Tetrazolium assays rely on reduction of a dye to a coloured formazan, in cell work by metabolically active cells.)
Series [15] deals with Escherichia coli. The series can be described thus: Antibacterial activity against Escherichia coli MTCC 443 at 250 ug/ml after 24 hrs by Kirby-Bauer method. The format is functional. The settings on record: MTCC 443, 24 h, read-out: IZ.
Series [16] deals with Escherichia coli. The series can be described thus: Antibacterial activity against Escherichia coli MTCC 443 after 24 hrs by broth dilution method. The settings on record: MTCC 443, 24 h. The format is functional.
In series [17] the test system is Staphylococcus aureus. The series can be described thus: Antibacterial activity against Staphylococcus aureus MTCC 96 after 24 hrs by broth dilution method. The format is functional. The settings on record: MTCC 96, 24 h.
Series [18] concerns Streptococcus pyogenes. Description: Antibacterial activity against Streptococcus pyogenes MTCC 442 at 250 ug/ml after 24 hrs by Kirby-Bauer method. The format is functional. The settings on record: MTCC 442, 24 h, read-out: IZ.
A short description of series [19]: Selectivity index, ratio of CC50 for human MT4 cells to IC50 for HIV2 ROD. The format is functional.
Series [20] concerns Human alphaherpesvirus 3. Description: Antiviral activity against Varicella-zoster virus Oka expressing thymidine kinase infected in HEL cells assessed as reduction in plaque formation. The format is functional, organism-based. The settings on record: Human alphaherpesvirus 3, strain Oka vaccine.
Series [21] has as its system Human immunodeficiency virus 1. The series can be described thus: Antiviral activity against HIV1 3B infected in MT4 cells assessed as inhibition of virus-induced cytopathogenicity by MTT assay. The settings on record: Human immunodeficiency virus 1, 3B. The format is functional, organism-based.
For series [22], the system named is Cytomegalovirus. The series can be described thus: Antiviral activity against Cytomegalovirus Davis in HEL cells assessed as reduction in plaque formation. The settings on record: Human betaherpesvirus 5, Davis. The format is functional, organism-based.
Series [23] has as its system Human alphaherpesvirus 3. The series can be described thus: Antiviral activity against thymidine kinase-deficient Varicella-zoster virus infected in HEL cells assessed as reduction in plaque formation. The settings on record: Human alphaherpesvirus 3, HEL. The format is functional, organism-based.
Series [24] concerns Aspergillus niger. Description: Antifungal activity against Aspergillus niger MTCC 282 at 250 ug/ml after 74 hrs by Kirby-Bauer method. The settings on record: MTCC 282, 74 h, read-out: IZ. The format is functional.
A short description of series [25]: Selectivity index, ratio of CC50 for human MT4 cells to IC50 for HIV1 3B. The format is functional.

Values after ≈ are worked out from the molar mass of the structure shown.

The MIC is the lowest concentration that inhibits growth of the organism. The low end stands for inhibition by little substance, the high end for a need for much substance. NYSTATIN: the inhibition zone (IZ) in [1] worked out at 26 mm. The MIC in [2], in series [3] and in series [4] was 100 µg/mL each time.

Usually EC50 stands for the concentration needed to bring the measured effect to its halfway point. As a reminder, the IC50 is the concentration that inhibits the measured activity by half. Broadly, the CC50 is the concentration that lowers cell viability or growth by half. A low value points to harm at low concentration. Turning to `Cc1ccc(-[n+]2noc([O-])c2CN2CCN(C)CC2)cc1`, the zone of inhibition at 250 µg/mL in [5] amounted to 18 mm; in series [1], 21 mm; in [7], 21 mm; in [12] it was 16 mm; in [15] it was 18 mm; in series [18], 20 mm. In addition, the zone of inhibition at 250 µg/mL in [24] came out at 21 mm. For the same compound, the MCC in [6] is 100 µg/mL. The half-maximal effective concentration (EC50) in [8], in [20], in series [22] and in [23] was above 20 µg/mL each time. For the same compound, the MIC in series [2] stood at 500 µg/mL (≈ 1730 µM); in series [9] it was 100 µg/mL (≈ 347 µM); in series [13] it was 100 µg/mL (≈ 347 µM); in series [3] it was 500 µg/mL (≈ 1730 µM); in series [16], 250 µg/mL (≈ 867 µM); in series [17] it was 500 µg/mL (≈ 1730 µM). Besides, 500 µg/mL (≈ 1730 µM) was the least that counted as inhibitory in [4] (MIC). The concentration for half-maximal inhibition (IC50) is above 12.7 µg/mL in [10] and above 12.9 µg/mL in [21]. Further, the figures for the CC50 in series [11] and in [14] were 25.6 µg/mL (≈ 88.8 µM) and 12.7 µg/mL (≈ 44 µM), respectively. In addition, the “Ratio CC50/IC50” value in series [19] and in series [25] was below 1 in each case.

As to `O=C(O)c1cn(C2CC2)c2cc(N3CCNCC3)c(F)cc2c1=O` [CIPROFLOXACIN], the zone of inhibition at 250 µg/mL in series [7] came out at 27 mm; in [12], 22 mm; in series [15] it was 28 mm; in series [18], 22 mm. Also, the MIC in series [13] is 50 µg/mL (≈ 151 µM); in series [16], 25 µg/mL (≈ 75.4 µM); in [17], 50 µg/mL (≈ 151 µM).

Turning to `Cc1ccc(-[n+]2noc([O-])c2CN2CCN(c3ccccc3)CC2)cc1`, the zone of inhibition at 250 µg/mL in series [5] stood at 21 mm; in series [1], 21 mm; in series [7] it was 20 mm; in [12] it was 18 mm; in series [15], 16 mm; in [18], 18 mm. Further, the zone of inhibition at 250 µg/mL in series [24] was 24 mm. In addition, the MCC in [6] is 100 µg/mL. For the same compound, the concentration giving a half-maximal response (EC50) in series [8] is above 20 µg/mL; in series [20], above 4 µg/mL; in series [22], above 20 µg/mL; in [23] it was above 4 µg/mL. In addition, the minimum inhibitory concentration (MIC) amounted to 500 µg/mL (≈ 1430 µM) in series [2]; 100 µg/mL (≈ 285 µM) in [9]; 250 µg/mL (≈ 713 µM) in [13]; 500 µg/mL (≈ 1430 µM) in series [3]; 500 µg/mL (≈ 1430 µM) in series [16]; 250 µg/mL (≈ 713 µM) in series [17]. In series [4], this compound displayed a minimum inhibitory concentration (MIC) of 200 µg/mL (≈ 571 µM). Moreover, the IC50 in [10] and in series [21] was above 13.2 µg/mL in each case. The 50% cytotoxic concentration (CC50) was 20 µg/mL (≈ 57.1 µM) in series [11] and 13.2 µg/mL (≈ 37.8 µM) in series [14]. Further, the “Ratio CC50/IC50” value in series [19] and in series [25] was below 1 throughout.

Regarding `Cc1ccc(-[n+]2cc([O-])on2)cc1`, the MCC in [6] was determined as 100 µg/mL. For the same compound, the concentration giving a half-maximal response (EC50) in series [8], in [20], in series [22] and in series [23] was above 20 µg/mL throughout. Also, half-maximal cytotoxicity in series [11] (CC50) was put at 33.1 µg/mL (≈ 188 µM).

For the compound `Cc1cn([C@H]2C[C@H](N=[N+]=[N-])[C@@H](CO)O2)c(=O)[nH]c1=O` [ZIDOVUDINE], the concentration for half-maximal inhibition (IC50) worked out at 0.00094 µg/mL (≈ 0.00352 µM) in series [10] and 0.0022 µg/mL (≈ 0.00823 µM) in series [21]. Also, in series [14], the CC50 is above 25 µg/mL. Moreover, the “Ratio CC50/IC50” value is above 26731 in series [19] and above 11587 in series [25].

For `O=c1[nH]cnc2c1ncn2[C@H]1CC[C@@H](CO)O1` [DIDANOSINE], the IC50 came out at 3.78 µg/mL (≈ 16 µM) in [10] and 2.09 µg/mL (≈ 8.85 µM) in series [21]. In [14], this compound came in with a cytotoxic concentration (CC50) above 50 µg/mL. Besides, the “Ratio CC50/IC50” value in [19] is given as above 13; in [25] it was above 24.

For the compound `CCn1cc(C(=O)O)c(=O)c2cc(F)c(N3CCNCC3)cc21` [NORFLOXACIN], the zone of inhibition at 250 µg/mL came to 23 mm in [7], 28 mm in [12], 29 mm in [15] and 21 mm in [18]. In addition, the minimal inhibitory concentration (MIC) in series [9], in [13], in series [16] and in [17] was 10 µg/mL (≈ 31.3 µM) in each case.
